Data on 16 compounds can be found in patent US20130131043A1, “PYRAZOLE COMPOUNDS AS JAK INHIBITORS” (priority 2010, published 2013).

The target of one experiment is T1, JAK2 (Homo sapiens, UniProt O60674).
T1 construct: endogenous in cells; host or cells: Molt4 (ATCC CRL-1582) and Ramos (ATCC CRL-1596) cell lysate; mixed Molt4/Ramos lysate 1:2
Kind of experiment: Kinobeads assay, JAK2 (competition binding in cell lysate, dot blot detection). As to conditions: mixed Molt4/Ramos lysate. As to the method:
(§1) The compounds of the present invention as described in the previous examples were tested in a Kinobeads™ assay as described for ZAP-70 (WO-A 2007/137867). Briefly, test compounds (at various concentrations) and the affinity matrix with the immobilized aminopyrido-pyrimidine ligand 24 were added to cell lysate aliquots and allowed to bind to the proteins in the lysate sample. After the incubation time the beads with captured proteins were separated from the lysate. Bound proteins were then eluted and the presence of JAK2 and JAK3 was detected and quantified using specific antibodies in a dot blot procedure and the Odyssey infrared detection system. Dose response curves for individual kinases were generated and IC50 values calculated. Kinobeads™ assays for ZAP-70 (WO-A 2007/137867) and for kinase selectivity profiling (WO-A 2006/134056) have been previously described.
(§2) 5×DP buffer: 250 mM Tris-HCl pH 7.4, 25% Glycerol, 7.5 mM MgCl2, 750 mM NaCl, 5 mM Na3VO4; filter the 5×DP buffer through a 0.22 μm filter and store in aliquots at −80° C. The 5×DP buffer is diluted with H2O to 1×DP buffer containing 1 mM DTT and 25 mM NaF.
(§3) Stock solutions of test compounds were prepared in DMSO. In a 96 well plate 30 μL solution of diluted test compounds at 5 mM in DMSO were prepared. Starting with this solution a 1:3 dilution series (9 steps) was prepared. For control experiments (no test compound) a buffer containing 2% DMSO was used.
(§4) Molt4 cells (ATCC catalogue number CRL-1582) and Ramos cells (ATCC catalogue number CRL-1596) were grown in 1 L Spinner flasks (Integra Biosciences, #182101) in suspension in RPMI 1640 medium (Invitrogen, #21875-034) supplemented with 10% Fetal Bovine Serum (Invitrogen) at a density between 0.15×10^6 and 1.2×10^6 cells/mL. Cells were harvested by centrifugation, washed once with 1×PBS buffer (Invitrogen, #14190-094) and cell pellets were frozen in liquid nitrogen and subsequently stored at −80° C. Cells were homogenized in a Potter S homogenizer in lysis buffer: 50 mM Tris-HCl, 0.8% NP40, 5% glycerol, 150 mM NaCl, 1.5 mM MgCl2, 25 mM NaF, 1 mM sodium vanadate, 1 mM DTT, pH 7.5. One complete EDTA-free tablet (protease inhibitor cocktail, Roche Diagnostics, 1873580) per 25 mL buffer was added. The material was dounced 10 times using a mechanized POTTER S, transferred to 50 mL falcon tubes, incubated for 30 minutes on ice and spun down for 10 minutes at 20,000 g at 4° C. (10,000 rpm in Sorvall SLA600, precooled). The supernatant was transferred to an ultracentrifuge (UZ)-polycarbonate tube (Beckmann, 355654) and spun for 1 hour at 100.000 g at 4° C. (33.500 rpm in Ti50.2, precooled). The supernatant was transferred again to a fresh 50 mL falcon tube, the protein concentration was determined by a Bradford assay (BioRad) and samples containing 50 mg of protein per aliquot were prepared. The samples were immediately used for experiments or frozen in liquid nitrogen and stored frozen at −80° C.
(§5) Cell lysate (approximately 50 mg protein per plate) was thawed in a water bath at room temperature and then stored on ice. To the thawed cell lysate 1×DP 0.8% NP40 buffer containing protease inhibitors (1 tablet for 25 mL buffer; EDTA-free protease inhibitor cocktail; Roche Diagnostics 1873580) was added in order to reach a final protein concentration of 10 mg/mL total protein. The diluted cell lysate was stored on ice. Mixed Molt4/Ramos lysate was prepared by combining one volume of Molt4 lysate and two volumes of Ramos lysate (ratio 1:2).
(§6) Plates were sealed and incubated for 3 hours in a cold room on a plate shaker (Heidolph tiramax 1000) at 750 rpm. Afterwards the plate was washed 3 times with 230 μL washing buffer (1×DP 0.4% NP40). The filter plate was placed on top of a collection plate (Greiner bio-one, PP-microplate 96 well V-shape, 65120) and the beads were then eluted with 20 μL of sample buffer (100 mM Tris, pH 7.4, 4% SDS, 0.00025% bromophenol blue, 20% glycerol, 50 mM DTT). […]

A further experiment has as its target T2, JAK3 (Homo sapiens, UniProt P52333).
T2 construct: endogenous in cells; host or cells: Molt4 (ATCC CRL-1582) and Ramos (ATCC CRL-1596) cell lysate; mixed Molt4/Ramos lysate 1:2
T2 sequence (P52333 1-1124): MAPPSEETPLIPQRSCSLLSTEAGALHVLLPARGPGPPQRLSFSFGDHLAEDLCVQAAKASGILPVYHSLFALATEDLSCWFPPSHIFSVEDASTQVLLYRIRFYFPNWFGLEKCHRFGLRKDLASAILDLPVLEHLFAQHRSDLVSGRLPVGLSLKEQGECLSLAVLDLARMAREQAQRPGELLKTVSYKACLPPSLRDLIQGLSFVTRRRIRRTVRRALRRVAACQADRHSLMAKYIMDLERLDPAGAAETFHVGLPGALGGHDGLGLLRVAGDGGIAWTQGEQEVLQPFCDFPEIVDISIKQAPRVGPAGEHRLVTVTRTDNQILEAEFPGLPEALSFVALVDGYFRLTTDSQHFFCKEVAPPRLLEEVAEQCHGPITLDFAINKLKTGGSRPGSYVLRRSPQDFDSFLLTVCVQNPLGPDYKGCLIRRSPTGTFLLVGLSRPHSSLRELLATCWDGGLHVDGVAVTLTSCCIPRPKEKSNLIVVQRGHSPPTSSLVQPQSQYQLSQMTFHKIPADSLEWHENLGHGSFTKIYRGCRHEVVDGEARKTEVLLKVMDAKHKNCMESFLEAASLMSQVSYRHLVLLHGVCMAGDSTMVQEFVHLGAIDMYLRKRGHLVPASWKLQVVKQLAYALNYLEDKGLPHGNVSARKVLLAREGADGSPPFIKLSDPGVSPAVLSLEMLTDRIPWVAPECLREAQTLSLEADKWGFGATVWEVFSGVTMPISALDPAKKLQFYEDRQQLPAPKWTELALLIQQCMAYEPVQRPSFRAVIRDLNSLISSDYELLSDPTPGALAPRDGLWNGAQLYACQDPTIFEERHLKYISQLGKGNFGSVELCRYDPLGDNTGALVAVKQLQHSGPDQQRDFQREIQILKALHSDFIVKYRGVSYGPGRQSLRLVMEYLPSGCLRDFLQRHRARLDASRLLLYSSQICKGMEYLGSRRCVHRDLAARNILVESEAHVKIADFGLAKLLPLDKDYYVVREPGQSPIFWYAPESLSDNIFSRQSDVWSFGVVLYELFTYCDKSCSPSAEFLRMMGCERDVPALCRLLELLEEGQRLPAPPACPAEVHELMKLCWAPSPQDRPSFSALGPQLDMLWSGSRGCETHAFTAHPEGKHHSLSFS
Briefly: Kinobeads assay, JAK3 (competition binding in cell lysate, dot blot detection). Conditions: mixed Molt4/Ramos lysate. On the procedure: as §1, §2, §3, §4, §5, §6

T1 sequence (O60674 whole entry): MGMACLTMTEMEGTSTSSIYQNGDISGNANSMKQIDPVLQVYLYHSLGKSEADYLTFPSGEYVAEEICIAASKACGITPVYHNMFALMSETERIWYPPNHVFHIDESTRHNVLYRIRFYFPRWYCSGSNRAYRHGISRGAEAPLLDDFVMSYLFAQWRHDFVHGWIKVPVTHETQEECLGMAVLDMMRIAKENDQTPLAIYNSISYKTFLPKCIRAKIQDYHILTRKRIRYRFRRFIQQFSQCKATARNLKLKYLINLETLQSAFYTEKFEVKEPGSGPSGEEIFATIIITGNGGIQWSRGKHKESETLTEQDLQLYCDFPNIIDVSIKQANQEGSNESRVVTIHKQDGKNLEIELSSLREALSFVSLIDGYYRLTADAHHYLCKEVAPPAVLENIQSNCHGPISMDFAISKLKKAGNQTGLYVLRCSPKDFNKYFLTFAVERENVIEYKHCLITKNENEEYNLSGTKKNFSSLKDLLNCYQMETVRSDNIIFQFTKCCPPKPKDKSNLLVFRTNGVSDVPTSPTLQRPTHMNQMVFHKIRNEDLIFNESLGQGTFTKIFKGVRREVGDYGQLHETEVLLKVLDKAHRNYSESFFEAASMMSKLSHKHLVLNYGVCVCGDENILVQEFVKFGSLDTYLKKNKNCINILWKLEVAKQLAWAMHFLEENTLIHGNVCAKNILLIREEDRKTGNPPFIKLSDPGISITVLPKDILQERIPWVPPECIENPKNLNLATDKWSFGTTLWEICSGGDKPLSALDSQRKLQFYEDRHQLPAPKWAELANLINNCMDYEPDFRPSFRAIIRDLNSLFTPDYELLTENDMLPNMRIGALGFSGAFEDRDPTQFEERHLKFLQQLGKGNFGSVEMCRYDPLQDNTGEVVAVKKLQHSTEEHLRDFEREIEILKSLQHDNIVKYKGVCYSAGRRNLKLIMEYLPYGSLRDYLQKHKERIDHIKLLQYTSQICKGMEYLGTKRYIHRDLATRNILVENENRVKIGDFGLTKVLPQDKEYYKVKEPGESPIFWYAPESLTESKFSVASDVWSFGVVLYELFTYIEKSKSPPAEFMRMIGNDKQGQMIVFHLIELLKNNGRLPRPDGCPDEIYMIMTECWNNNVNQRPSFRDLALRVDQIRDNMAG

On to `Cn1cc(Nc2ncc3cnn(CC4CCCN(C(=O)CC#N)C4)c3n2)cn1` (centres unmarked) [Example 26, 3-(3-((6-((1-methyl-1H-pyrazol-4-yl)amino)-1H-pyrazolo[3,4-d]pyrimidin-1-yl)methyl)piperidin-1-yl)-3-oxopropanenitrile], for which the IC50 on JAK2 is 1000 to 10000 nM; on JAK3, < 100 nM.
In the same order, the values of `Cn1cc(Nc2ncc3cnn(CC4CCCN(CC#N)C4)c3n2)cn1` (centres unmarked) [Example 54, 2-(3-((6-((1-methyl-1H-pyrazol-4-yl)amino)-1H-pyrazolo[3,4-d]pyrimidin-1-yl)methyl)piperidin-1-yl)acetonitrile] are 1000 to 10000 nM and < 100 nM.
For `CCNC(=O)N1CCCC(Cn2ncc3cnc(Nc4cnn(C)c4)nc32)C1` (centres unmarked) [Example 51, N-ethyl-3-((6-((1-methyl-1H-pyrazol-4-yl)amino)-1H-pyrazolo[3,4-d]pyrimidin-1-yl)methyl)piperidine-1-carboxamide], in that order: 1000 to 10000 nM and < 100 nM.
Take `CC(C)S(=O)(=O)N1CCCC(Cn2ncc3cnc(Nc4cnn(C)c4)nc32)C1` (centres unmarked) [Example 32, 1-((1-(isopropylsulfonyl)piperidin-3-yl)methyl)-N-(1-methyl-1H-pyrazol-4-yl)-1H-pyrazolo[3,4-d]pyrimidin-6-amine]: the IC50 was 1000 to 10000 nM at JAK2 and < 100 nM on JAK3.
In the same order, the values of `COC(=O)N1CCCC(Cn2ncc3cnc(Nc4cnn(C)c4)nc32)C1` (centres unmarked) [Example 38, methyl 3-((6-((1-methyl-1H-pyrazol-4-yl)amino)-1H-pyrazolo[3,4-d]pyrimidin-1-yl)methyl)piperidine-1-carboxylate] are > 10000 nM and 100 to 1000 nM.
In the same order, the values of `CCS(=O)(=O)N1CCC(Cn2ncc3cnc(Nc4cnn(C)c4)nc32)C1` (centres unmarked) [Example 42, 1-((1-(ethylsulfonyl)pyrrolidin-3-yl)methyl)-N-(1-methyl-1H-pyrazol-4-yl)-1H-pyrazolo[3,4-d]pyrimidin-6-amine] are > 10000 nM and 100 to 1000 nM.
In the case of `Cn1cc(Nc2ncc3cnn(CC4CCCN(C(=O)NC5CC5)C4)c3n2)cn1` (centres unmarked) [Example 52, N-cyclopropyl-3-((6-((1-methyl-1H-pyrazol-4-yl)amino)-1H-pyrazolo[3,4-d]pyrimidin-1-yl)methyl)piperidine-1-carboxamide], the values for the IC50 on JAK2 and at JAK3 were 1000 to 10000 nM and < 100 nM, respectively.
Turning to `COCCN1CCCC(Cn2ncc3cnc(Nc4cnn(C)c4)nc32)C1` (centres unmarked) [Example 35, 1-((1-(2-methoxyethyl)piperidin-3-yl)methyl)-N-(1-methyl-1H-pyrazol-4-yl)-1H-pyrazolo[3,4-d]pyrimidin-6-amine], the values for the IC50 at JAK2 and at JAK3 were > 10000 nM and < 100 nM, respectively.
In the same order, the values of `Cn1cc(Nc2ncc3cnn(CC4CCCN(CCS(C)(=O)=O)C4)c3n2)cn1` (centres unmarked) [Example 46, N-(1-methyl-1H-pyrazol-4-yl)-1-((1-(2-(methylsulfonyl)ethyl)piperidin-3-yl)methyl)-1H-pyrazolo[3,4-d]pyrimidin-6-amine] are 1000 to 10000 nM and < 100 nM.
For `CC(C)S(=O)(=O)N1CCCC(Cn2ncc3cnc(Nc4cnn(CC(F)F)c4)nc32)C1` (centres unmarked) [Example 61, N-(1-(2,2-difluoroethyl)-1H-pyrazol-4-yl)-1-((1-(isopropylsulfonyl)piperidin-3-yl)methyl)-1H-pyrazolo[3,4-d]pyrimidin-6-amine], in that order: 1000 to 10000 nM and < 100 nM.
Regarding `Cn1cc(Nc2ncc3cnn(CC4CCCN(CCC#N)C4)c3n2)cn1` (centres unmarked) [Example 41, 3-(3-((6-((1-methyl-1H-pyrazol-4-yl)amino)-1H-pyrazolo[3,4-d]pyrimidin-1-yl)methyl)piperidin-1-yl)propanenitrile], the IC50 at JAK2 was 1000 to 10000 nM; on JAK3 it was < 100 nM.
Regarding `CC(C1CCCCC1)n1ncc2cnc(Nc3cnn(C)c3)nc21` (centres unmarked) [Example 17, 1-(1-Cyclohexylethyl)-N-(1-methyl-M-pyrazol-4-yl)-1H-pyrazolo[3,4-d]pyrimidin-6-amine], the IC50 at JAK2 is > 10000 nM; at JAK3, 100 to 1000 nM.
In the case of `Cn1cc(Nc2ncc3cnn(CC4CCCN(C(=O)C(F)(F)F)C4)c3n2)cn1` (centres unmarked) [Example 47, 2,2,2-trifluoro-1-(3-((6-((1-methyl-1H-pyrazol-4-yl)amino)-1H-pyrazolo[3,4-d]pyrimidin-1-yl)methyl)piperidin-1-yl)ethanone], the IC50 on JAK2 lay in the range of 1000 to 10000 nM; on JAK3 it was 100 to 1000 nM.
In the same order, the values of `Cn1cc(Nc2ncc3cnn(CC4CN(CCC#N)C4)c3n2)cn1` [Example 49, 3-(3-((6-((1-methyl-1H-pyrazol-4-yl)amino)-1H-pyrazolo[3,4-d]pyrimidin-1-yl)methyl)azetidin-1-yl)propanenitrile] are > 10000 nM and 100 to 1000 nM.
For `CN(C)CC(=O)N1CCCC(Cn2ncc3cnc(Nc4cnn(C)c4)nc32)C1` (centres unmarked) [Example 29, 2-(dimethylamino)-1-(3-((6-((1-methyl-1H-pyrazol-4-yl)amino)-1H-pyrazolo[3,4-d]pyrimidin-1-yl)methyl)piperidin-1-yl)ethanone], in that order: > 10000 nM and 100 to 1000 nM.
For `Cn1cc(Nc2ncc3cnn(CC4CCCNC4)c3n2)cn1` (centres unmarked) [Example 5, N-(1-methyl-1H-pyrazol-4-yl)-1-(piperidin-3-ylmethyl)-1H-pyrazolo[3,4-d]pyrimidin-6-amine], the IC50 is 1000 to 10000 nM at JAK2 and 100 to 1000 nM on JAK3.
